Source: PubChem BioAssay (NCI)
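Five compound concentrations were applied to cells in 96-well plates for 48 hours; endpoints were derived by simple linear interpolation of the resulting dose-response curve. TGI denotes the concentration required for complete inhibition of growth.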

Key:
Test in all cases: inhibition of tumour cell growth, NCI panel, 48 h
[1] = system: HT29 colon
[2] = system: HCC-2998 colon
[3] = system: HOP-62 NSCLC
[4] = system: K-562 leukemia
[5] = system: MCF7 breast
[6] = system: MALME-3M melanoma
[7] = system: CAKI-1 renal
[8] = system: SK-MEL-28 melanoma
[9] = system: UACC-257 melanoma
[10] = system: IGROV1 ovarian
[11] = system: U251 CNS
[12] = system: KM12 colon
[13] = system: A498 renal
[14] = system: OVCAR-8 ovarian
[15] = system: NCI-H226 lung
[16] = system: RXF 393 renal
[17] = system: SK-OV-3 ovarian
[18] = system: BT-549 breast
[19] = system: OVCAR-3 ovarian
[20] = system: UACC-62 melanoma
[21] = system: COLO 205 colon
[22] = system: MDA-MB-435
[23] = system: HOP-92 NSCLC
[24] = system: NCI/ADR-RES ovarian
[25] = system: HCT-15 colon
[26] = system: MDA-N
[27] = system: MOLT-4 leukemia
[28] = system: CCRF-CEM leukemia
[29] = system: OVCAR-5 ovarian
[30] = system: SK-MEL-5 melanoma
[31] = system: NCI-H460 lung
[32] = system: DU-145 prostate
[33] = system: T-47D breast
[34] = system: EKVX NSCLC
[35] = system: NCI-H522 lung
[36] = system: A549 NSCLC
[37] = system: OVCAR-4 ovarian
[38] = system: UO-31 renal
[39] = system: SF-295 CNS
[40] = system: TK-10 renal
[41] = system: PC-3 prostate
[42] = system: SNB-19 CNS
[43] = system: SK-MEL-2 melanoma
[44] = system: HS 578T breast
[45] = system: HCT-116 colon
[46] = system: 786-0 renal
[47] = system: ACHN renal
[48] = system: RPMI-8226 leukemia
[49] = system: M14 melanoma
[50] = system: HL-60(TB) leukemia
[51] = system: NCI-H23 lung
[52] = system: MDA-MB-231 breast
[53] = system: SN12C renal
[54] = system: SF-268 CNS
[55] = system: SF-539 CNS
[56] = system: SW-620 colon
[57] = system: LOX IMVI melanoma
[58] = system: SR leukemia
[59] = system: SNB-75 CNS

COc1ccc(CCN2CCN(CCc3ccc(OC)cc3)CC2)cc1
TGI [1]: > 100 µM | TGI [2]: > 100 µM | TGI [3]: > 100 µM | TGI [4]: > 100 µM | TGI [5]: > 100 µM | TGI [6]: > 100 µM | TGI [7]: > 100 µM | TGI [8]: > 100 µM | TGI [9]: > 100 µM | TGI [10]: > 100 µM | TGI [11]: > 100 µM | TGI [12]: > 100 µM | TGI [13]: > 100 µM | TGI [14]: > 100 µM | TGI [15]: > 100 µM | TGI [16]: 95.1 µM | TGI [17]: > 100 µM | TGI [18]: > 100 µM | TGI [19]: > 100 µM | TGI [20]: > 100 µM | TGI [21]: > 100 µM | TGI [22]: > 100 µM | TGI [23]: > 100 µM | TGI [24]: > 100 µM | TGI [25]: > 100 µM | TGI [26]: > 100 µM | TGI [27]: > 100 µM | TGI [28]: > 100 µM | TGI [29]: > 100 µM | TGI [30]: > 100 µM | TGI [31]: > 100 µM | TGI [32]: > 100 µM | TGI [33]: > 100 µM | TGI [34]: > 100 µM | TGI [35]: > 100 µM | TGI [36]: > 100 µM | TGI [37]: > 100 µM | TGI [38]: > 100 µM | TGI [39]: > 100 µM | TGI [40]: > 100 µM | TGI [41]: > 100 µM | TGI [42]: > 100 µM | TGI [43]: > 100 µM | TGI [44]: > 100 µM | TGI [45]: > 100 µM | TGI [46]: > 100 µM | TGI [47]: > 100 µM | TGI [48]: > 100 µM | TGI [49]: > 100 µM | TGI [50]: > 100 µM | TGI [51]: > 100 µM | TGI [52]: > 100 µM | TGI [53]: > 100 µM | TGI [54]: > 100 µM | TGI [55]: > 100 µM | TGI [56]: > 100 µM | TGI [57]: > 100 µM

c1ccc(CSP234N5CCN2CCN3CCN4CC5)c(CSP234N5CCN2CCN3CCN4CC5)c1
TGI [1]: > 100 µM | TGI [2]: > 100 µM | TGI [3]: > 100 µM | TGI [5]: > 100 µM | TGI [7]: > 100 µM | TGI [8]: > 100 µM | TGI [9]: > 100 µM | TGI [10]: > 100 µM | TGI [11]: > 100 µM | TGI [12]: > 100 µM | TGI [14]: > 100 µM | TGI [18]: > 100 µM | TGI [58]: > 100 µM | TGI [19]: > 100 µM | TGI [20]: > 100 µM | TGI [21]: 47.3 µM | TGI [22]: > 100 µM | TGI [23]: > 100 µM | TGI [24]: > 100 µM | TGI [25]: > 100 µM | TGI [26]: 82.8 µM | TGI [27]: > 100 µM | TGI [28]: > 100 µM | TGI [29]: > 100 µM | TGI [30]: > 100 µM | TGI [31]: > 100 µM | TGI [32]: > 100 µM | TGI [33]: > 100 µM | TGI [34]: > 100 µM | TGI [35]: > 100 µM | TGI [36]: > 100 µM | TGI [37]: > 100 µM | TGI [38]: > 100 µM | TGI [39]: > 100 µM | TGI [40]: > 100 µM | TGI [41]: > 100 µM | TGI [42]: > 100 µM | TGI [43]: > 100 µM | TGI [44]: > 100 µM | TGI [45]: > 100 µM | TGI [46]: > 100 µM | TGI [47]: > 100 µM | TGI [48]: > 100 µM | TGI [49]: > 100 µM | TGI [50]: 77 µM | TGI [51]: > 100 µM | TGI [52]: > 100 µM | TGI [53]: > 100 µM | TGI [54]: > 100 µM | TGI [55]: > 100 µM | TGI [56]: > 100 µM | TGI [57]: > 100 µM | TGI [59]: > 100 µM
